Source: US20070004649A1, “Anti-influenza virus compound comprising biflavonoid-sialic acid glycoside” (The Kitasato Institute, priority 2003, published 2007)
Like-named read-outs stand apart in the source and are kept apart here.

Key:
[1] = biological target: A/Guizhou/54/89 virus sialidase (Influenza A virus, UniProt I6UMM5); test: Inhibitory activity against influenza A/Guizhou/54/89 virus sialidase (4-MU-NeuAc substrate, HA vaccine as enzyme); type: biochemical, influenza virus A/Guizhou/54/89 (H3N2 subtype)
[2] = test system: MDCK (Madin-Darby canine kidney) cells; test: Cytotoxicity in non-infected MDCK cells (MTT method); conditions: 12.5 μg/mL, three days
[3] = biological target: A/PR/8/34 virus sialidase (Influenza A virus, UniProt P03468); test: Inhibitory activity against influenza A/PR/8/34 virus sialidase (4-MU-NeuAc substrate, HA vaccine as enzyme); type: biochemical, influenza virus A/PR/8/34 (H1N1 subtype)
[4] = biological target: B/Ibaraki/2/85 virus sialidase (Influenza B virus, UniProt P16207); test: Inhibitory activity against influenza B/Ibaraki/2/85 virus sialidase (4-MU-NeuAc substrate, HA vaccine as enzyme); type: biochemical, influenza virus B/Ibaraki/2/85
influenza virus [5] = conditions: cited from earlier work
influenza virus [6] = conditions: cited from earlier work; remark: listed apart in the source
[7] = final concentration of 10 μg/mL

Sequence of A/Guizhou/54/89 virus sialidase (I6UMM5 1-469): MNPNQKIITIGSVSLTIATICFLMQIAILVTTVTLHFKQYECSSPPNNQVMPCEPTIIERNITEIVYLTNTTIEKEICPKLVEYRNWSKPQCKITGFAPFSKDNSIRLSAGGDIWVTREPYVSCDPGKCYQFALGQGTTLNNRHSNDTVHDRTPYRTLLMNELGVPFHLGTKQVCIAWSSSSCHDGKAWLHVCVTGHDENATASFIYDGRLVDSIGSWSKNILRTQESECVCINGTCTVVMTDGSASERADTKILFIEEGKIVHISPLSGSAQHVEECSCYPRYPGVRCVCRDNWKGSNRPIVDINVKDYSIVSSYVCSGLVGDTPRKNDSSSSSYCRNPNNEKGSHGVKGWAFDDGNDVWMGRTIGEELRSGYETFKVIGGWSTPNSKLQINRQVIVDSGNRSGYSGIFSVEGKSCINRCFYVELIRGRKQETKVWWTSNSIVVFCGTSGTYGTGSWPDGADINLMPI
Sequence of A/PR/8/34 virus sialidase (P03468 whole entry): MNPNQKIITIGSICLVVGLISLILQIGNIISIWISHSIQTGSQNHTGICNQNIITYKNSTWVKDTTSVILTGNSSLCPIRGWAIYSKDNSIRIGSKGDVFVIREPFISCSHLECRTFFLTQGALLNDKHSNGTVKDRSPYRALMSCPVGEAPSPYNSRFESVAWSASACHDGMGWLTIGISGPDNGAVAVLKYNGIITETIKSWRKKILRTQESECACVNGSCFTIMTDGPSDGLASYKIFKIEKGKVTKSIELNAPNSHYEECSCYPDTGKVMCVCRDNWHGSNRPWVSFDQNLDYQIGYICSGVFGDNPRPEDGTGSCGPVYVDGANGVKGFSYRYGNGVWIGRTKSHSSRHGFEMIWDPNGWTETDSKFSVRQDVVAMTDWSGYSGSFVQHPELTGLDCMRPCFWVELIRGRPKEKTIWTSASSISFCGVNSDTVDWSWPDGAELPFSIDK
Sequence of B/Ibaraki/2/85 virus sialidase (P16207 whole entry): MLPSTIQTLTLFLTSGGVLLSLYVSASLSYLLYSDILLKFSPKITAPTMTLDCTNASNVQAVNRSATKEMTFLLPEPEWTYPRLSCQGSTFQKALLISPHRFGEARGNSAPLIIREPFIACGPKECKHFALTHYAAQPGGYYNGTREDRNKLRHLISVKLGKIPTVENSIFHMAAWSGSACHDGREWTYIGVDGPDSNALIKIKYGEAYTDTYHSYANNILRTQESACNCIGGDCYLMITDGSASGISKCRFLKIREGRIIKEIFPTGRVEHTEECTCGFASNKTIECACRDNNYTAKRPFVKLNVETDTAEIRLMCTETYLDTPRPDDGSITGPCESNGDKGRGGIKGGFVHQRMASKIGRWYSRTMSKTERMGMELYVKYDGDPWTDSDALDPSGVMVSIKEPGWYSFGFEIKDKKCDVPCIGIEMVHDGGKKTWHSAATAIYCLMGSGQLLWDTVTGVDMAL

COC(=O)C1(Oc2cc(O)c3c(=O)cc(-c4ccc(O)cc4)oc3c2-c2cc(-c3cc(=O)c4c(O)cc(OC)cc4o3)ccc2OC)CC(OC(C)=O)C(NC(C)=O)C(C(OC(C)=O)C(COC(C)=O)OC(C)=O)O1 [Gin-NeuAc-3, (S)-7,4′-di-O-methyl-7″-O-(1″″-methyl-4″″,7″″,8″″,9″″-tetra-O-acetyl-N-acetylneuraminyl)a mentoflavone]
inhibitory activity against the A/Guizhou/54/89 virus sialidase ([1]; final concentration of 1 μg/mL): about 50%

COC(=O)C1(Oc2ccc(-c3cc(=O)c4c(O)cc(OC5(C(=O)OC)C[C@H](OC(C)=O)[C@@H](NC(C)=O)[C@H]([C@H](OC(C)=O)[C@@H](COC(C)=O)OC(C)=O)O5)c(-c5cc(-c6cc(=O)c7c(O)cc(OC)cc7o6)ccc5OC)c4o3)cc2)C[C@H](OC(C)=O)[C@@H](NC(C)=O)[C@H]([C@H](OC(C)=O)[C@@H](COC(C)=O)OC(C)=O)O1 (stereo partly drawn) [Gin-NeuAc-4, (R)-7,4′-di-O-methyl-7″-O-(1″″-methyl-4″″,7″″,8″″,9″″-tetra-O-acetyl-N-acetylneuraminyl)-4′″-O-(1′″″-methyl-4′″″,7′″″,8′″″,9′″″-tetra-O-acetyl-N-acetylneuraminyl)amentoflavone]
inhibitory activity against the A/Guizhou/54/89 virus sialidase ([1]; final concentration of 1 μg/mL): about 50%

COc1ccc(-c2cc(=O)c3c(O)cc(O)c(-c4cc(-c5cc(=O)c6c(O)cc(O)cc6o5)ccc4OC)c3o2)cc1 [isoginkgetin]
cytotoxicity (cell viability by the MTT method) [2]: showed cytotoxicity

COc1cc(O)c2c(=O)cc(-c3ccc(OC)c(-c4c(OC5(C(=O)O)CC(O)C(NC(C)=O)C(C(O)C(O)CO)O5)cc(O)c5c(=O)cc(-c6ccc(OC7(C(=O)O)CC(O)C(NC(C)=O)C(C(O)C(O)CO)O7)cc6)oc45)c3)oc2c1 [Gin-Neu-2-(S), (S)-7″,4′″-di-O-(N-acetylneuraminyl)-7,4′-di-O-methylamentoflavone]
inhibitory activity against the A/Guizhou/54/89 virus sialidase ([1]; final concentration of 1 μg/mL): about 50%

(5)-7″-O-(N-acetylneuraminal)-7,4′-di-O-methylamentoflavone [Gin-Neu-1-(S)]
inhibitory activity against the A/Guizhou/54/89 virus sialidase ([1]; final concentration of 1 μg/mL): about 50%

COc1cc(O)c2c(=O)cc(-c3ccc(OC)c(-c4c(O)cc(O)c5c(=O)cc(-c6ccc(O)cc6)oc45)c3)oc2c1 [ginkgetin]
cytotoxicity (cell viability by the MTT method) [2]: showed cytotoxicity

(R)-7″-O-(N-acetylneuraminyl)-7,4-di-O-methylamentoflavone [Gin-Neu-1-(R)]
IC50, A/Guizhou/54/89 virus sialidase [1]: 1 µg/mL
inhibitory activity against the A/Guizhou/54/89 virus sialidase ([1]; final concentration of 1 μg/mL): about 50%

COc1ccc(-c2cc(=O)c3c(O)cc(O[C@]4(C(=O)O)C[C@H](O)[C@@H](NC(C)=O)[C@H]([C@H](O)[C@H](O)CO)O4)c(-c4cc(-c5cc(=O)c6c(O)cc(OC)cc6o5)ccc4OC)c3o2)cc1 (relative stereo) [Sci-Neu-2, (S)-7″-O-(N-acetylneuraminyl)-7,4′,4′″-tri-O-methylamentoflavone]
IC50 [3]: 5.74 µM
inhibition at 10 µg/mL ([3]; even at a final concentration of 10 μg/mL (second sentence of b311), read-out: inhibitory activity against the A/PR/8/34 virus sialidase): ≥ 70%
inhibition at 10 µg/mL ([3]; read-out: inhibitory activity against the A/PR/8/34 virus sialidase, final concentration of 10 μg/mL (first sentence of b311)): ≥ 80%
IC50 [1]: 1.15 µM
inhibition at 1 µg/mL ([1]; final concentration of 1 μg/mL): ~50%
inhibition at 10 µg/mL [1, 7]: ≥ 80%
inhibition at 10 µg/mL [4, 7]: 65%
inhibition at 100 µg/mL ([4]; final concentration of 100 μg/mL): ≥ 80%
melting point: 200 °C (dec.)

COc1c(O)cc(O)c2c(=O)cc(-c3ccc(O)cc3)oc12 [F36, 5,7,4′-trihydroxy-8-methoxyflavone]
anti-influenza virus activity in vitro (influenza virus [5]): has anti-influenza virus activity
anti-influenza virus activity in vivo (influenza virus [6]): has anti-influenza virus activity
